Measurements from US20110009343A1, “MODULATORS OF AMYLOID AGGREGATION” (Praecis Pharmaceuticals, Inc., priority 1995, published 2011).
Marks after values point to notes of the source that are not given here. Primed or numbered codes have the meaning given here. Peptide text beside a SMILES is read from it. * marks the point of attachment. Cholyl = C[C@H](CCC(=O)*)[C@H]1CC[C@H]2[C@@H]3[C@H](O)C[C@@H]4C[C@H](O)CC[C@]4(C)[C@H]3C[C@H](O)[C@]12C; Adp″ = aminoethyldibenzofuranylpropanoic acid, NCCc1cccc2c1oc1c(CCC(=O)*)cccc12; NMeV = CN[C@H](C(=O)O)C(C)C; CA = not defined here

What was measured:
Aβ1-40 [1] = molecular target: T1, Aβ1-40 (Homo sapiens, UniProt P05067); assay: Nucleation assay (turbidity, A405 nm); type: biochemical;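 also: synthetic Aβ monomer polymerization followed by turbidity in 96-well plates with continuous shaking, read every 15 minutes over 5 hours, compared against wells lacking test compound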
T1 construct: (β-AP1-40) was obtained commercially from Bachem (Torrance, Calif.); purchased Bachem (Torrance, Calif.)
T1 sequence (P05067 672-711): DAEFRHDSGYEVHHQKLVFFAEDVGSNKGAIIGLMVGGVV
Source text: The nucleation assay is employed to determine the ability of test compounds to alter (e.g. inhibit) the early events in formation of β-AP fibers from monomeric β-AP. […] The time delay before polymerization of β-AP monomer can be quantified as well as the extent of formation of insoluble fiber by light scattering (turbidity). Polymerization reaches equilibrium when the maximum turbidity reaches a plateau. The turbidity of a solution of natural β-AP in the absence or presence of various concentrations of a β-amyloid modulator compound is determined by measuring the apparent absorbance of the solution at 405 nm (A405 nm) over time. The threshold of sensitivity for the measurement of turbidity is in the range of 15-20 μM β-AP. […] This assay can be performed using stirring or shaking to accelerate polymerization, thereby increasing the speed of the assay. Moreover the assay can be adapted to a 96-well plate format to screen multiple compounds.
HFIP-solubilized peptide is sonicated in a waterbath sonicator for 5 mM at highest setting, then evaporated to dryness under a stream of argon. The peptide film is resuspended in anhydrous dimethylsulfoxide (DMSO) at a concentration of 6.9 mg/ml (25× concentration), sonicated for 5 mM as before, then filtered through a 0.2 micron nylon syringe filter (VWR cat. No. 28196-050). Test compounds are dissolved in DMSO at a 100× concentration. […] Ten microliters of the mixture is then added to the bottom of a well of a Corning Costar ultra low binding 96-well plate (Corning Costar, Cambridge Mass.; cat. No. 2500). Ninety microliters of water is added to the well, the plate is shaken on a rotary shaken at a constant speed at room temperature for 30 seconds, an additional 100 μl of 2×PTL buffer (20 mM NaH2PO4, 300 mM NaCl, pH 7.4) is added to the well, the plate is reshaken for 30 seconds and a baseline (t=0) turbidity reading is taken by measuring the apparent absorbance at 405 nm using a Bio-Rad Model 450 Microplate Reader. The plate is then returned to the shaker and shaken continuously for 5 hours. Turbidity readings are taken at 15 minute intervals.
β-amyloid aggregation in the absence of any modulators results in enhanced turbidity of the natural β-AP solution (i.e., an increase in the apparent absorbance at 405 nm over time).
Accordingly a fold increase in lag time of 1.0 indicates no change in lag time, whereas numbers >1.0 indicate an increase in lag time. The “% inhibition of plateau”, which is a measure of the ability of the compound to decrease the total amount of aggregation, refers to the reduction of the final turbidity in the presence of the test compound expressed as a percent of the control without the test compound.

Aβ1-40 [2] = molecular target: T1, Aβ1-40; assay: Seeded extension assay (thioflavin T fluorescence); type: biochemical; conditions: Table V; 25 mole % inhibitor
Protocol: The seeded extension assay can be employed to measure the rate of Aβ fiber formed in a solution of Aβ monomer following addition of polymeric Aβ fiber “seed”. The ability of test compounds to prevent further deposition of monomeric Aβ to previously deposited amyloid is determined using a direct indicator of β-sheet formation using fluorescence. In contrast with the nucleation assay, the addition of seed provides immediate nucleation and continued growth of preformed fibrils without the need for continuous mixing, and thus results in the absence of a lag time before polymerization starts. Since this assay uses static polymerization conditions, the activity of positive compounds in the nucleation assay can be confirmed in this second assay under different conditions and with an additional probe of amyloid structure.
In the seeded extension assay, monomeric Aβ140 is incubated in the presence of a “seed” nucleus (approximately ten mole percent of Aβ that has been previously allowed to polymerize under controlled static conditions). Samples of the solution are then diluted in thioflavin T (Th-T). The polymer-specific association of Th-T with Aβ produces a fluorescent complex that allows the measurement of the extent of fibril formation (Levine, H. (1993) Protein Science 2:404-410). In particular, association of Th-T with aggregated β-AP, but not monomeric or loosely associated β-AP, gives rise to a new excitation (ex) maximum at 450 nm and an enhanced emission (em) at 482 nm, compared to the 385 nm (ex) and 445 nm (em) for the free dye. Small aliquots of the polymerization mixture contain sufficient fibril to be mixed with Th-T to allow the monitoring of the reaction mixture by repeated sampling. A linear growth curve is observed in the presence of excess monomer. The formation of thioflavin T responsive β-sheet fibrils parallels the increase in turbidity observed using the nucleation assay.
To prepare the stock seed, 1 ml of the Aβ monomer preparation, is incubated for approximately 8 days at 37° C. and sheared sequentially through an 18, 23, 26 and 30 gauge needle 25, 25, 50, and 100 times respectively. 2 μl samples of the sheared material is taken for fluorescence measurements after every 50 passes through the 30 gauge needle until the fluorescence units (FU) plateau (approx. 100-150×). Test compounds are prepared by dissolving an appropriate amount of test compound in 1×PBS to a final concentration of 1 mM (10× stock). If insoluble, the compound is dissolved in 1/10 volume of DMSO and diluted in 1×PBS to 1 mM. A further 1/10 dilution is also prepared to test each candidate at both 100 μM and 10 μM.
To perform the seeded extension assay, each sample is set up with 50 μl of 200 μM monomer, 125 FU sheared seed (a variable quantity dependent on the batch of seed, routinely 3-6 μl) and 10 μl of 10× modulator solution. The sample volume is then adjusted to a final volume of 100 μl with 1×PBS. Two concentrations of each modulator typically are tested: 100 μM and 10 μM, equivalent to a 1:1 and a 1:10 molar ratio of monomer to modulator. The controls include an unseeded reaction to confirm that the fresh monomer contains no seed, and a seeded reaction in the absence of any modulators, as a reference to compare against candidate modulators. The assay is incubated at 37° C. for 6 h, taking 2 μl samples hourly for fluorescence measurements. To measure fluorescence, a 2 μl sample of Aβ is added to 400 μl of Thioflavin-T solution (50 mM Potassium Phosphate […] pH 7.5). The samples are vortexed and the fluorescence is read in a 0.5 ml micro quartz cuvette at EX 450 nm and EM 482 nm (Hitachi 4500 Fluorimeter).

[3] = Table V, 100 mole % inhibitor relative to Aβ1-40
[4] = Table V, 100 mole % inhibitor, read-out: % Inucl'n (percent reduction in maximum observed turbidity)

Compound | ΔLag (ratio of lag time with test compound to lag time of control) (Aβ1-40 [1]; [3]) | % Inucl'n (percent reduction in maximum observed turbidity) (Aβ1-40 [1]; Table V, 100 mole % inhibitor) [%] | % Iext'n (percent reduction of thioflavin-T fluorescence) (Aβ1-40 [2]) [%] | also measured
CC(C)C[C@H](NC(=O)[C@H](CCCCN)NC(=O)[C@H](CCC(N)=O)NC(=O)[C@H](Cc1c[nH]cn1)NC(=O)[C@H](Cc1c[nH]cn1)NC(=O)CC[C@@H](C)[C@H]1CC[C@H]2[C@@H]3[C@H](O)C[C@@H]4C[C@H](O)CC[C@]4(C)[C@H]3C[C@H](O)[C@]12C)C(=O)N[C@H](C(=O)N[C@@H](Cc1ccccc1)C(=O)N[C@@H](Cc1ccccc1)C(=O)O)C(C)C [PPI-347, cholyl-Aβ13-20] (Cholyl-HHQKLVFF-OH) | – | – | – | Fold Increase in Lag Time (Aβ1-40 [1]; Table III, 33 mole %): 2.6 fold; Fold Increase in Lag Time (Aβ1-40 [1]; Table IV, 10 mole %): 2.2 fold
CC(C)C[C@H](NC(=O)[C@H](CCCCN)NC(=O)[C@H](CCC(N)=O)NC(=O)[C@H](Cc1c[nH]cn1)NC(=O)CC[C@@H](C)[C@H]1CC[C@H]2[C@@H]3[C@H](O)C[C@@H]4C[C@H](O)CC[C@]4(C)[C@H]3C[C@H](O)[C@]12C)C(=O)N[C@H](C(=O)N[C@@H](Cc1ccccc1)C(=O)N[C@@H](Cc1ccccc1)C(=O)O)C(C)C [PPI-348, cholyl-Aβ14-20] (Cholyl-HQKLVFF-OH) | – | – | – | Fold Increase in Lag Time (Aβ1-40 [1]; Table III, 33 mole %): 2.0 fold; inhibition at 33 mol % (Aβ1-40 [1]; Table V, 33 mol % inhibitor, read-out: % Inucl'n (percent reduction in maximum observed turbidity)): 70%; ΔLag (ratio of lag time with test compound to lag time of control) (Aβ1-40 [1]; Table V, 33 mole % inhibitor): 2.0
C[C@H](NC(=O)[C@H](C)NC(=O)[C@H](C)NC(=O)[C@H](C)NC(=O)[C@H](C)NC(=O)CC[C@@H](C)[C@H]1CC[C@H]2[C@@H]3[C@H](O)C[C@@H]4C[C@H](O)CC[C@]4(C)[C@H]3C[C@H](O)[C@]12C)C(=O)O [PPI-365, Cholyl-penta-alanine] | 0.8 | – | – | Fold Increase in Lag Time (Aβ1-40 [1]; Table IV, 100 mole %): ~1 fold; inhibition at 100 mol % (Aβ1-40 [1]; [4]): -7%
CC(C)C[C@H](NC(=O)[C@H](CCCCN)NC(=O)[C@H](CCC(N)=O)NC(=O)CC[C@@H](C)[C@H]1CC[C@H]2[C@@H]3[C@H](O)C[C@@H]4C[C@H](O)CC[C@]4(C)[C@H]3C[C@H](O)[C@]12C)C(=O)N[C@H](C(=O)N[C@@H](Cc1ccccc1)C(=O)O)C(C)C [PPI-366] (Cholyl-QKLVF-OH) | 3.1 | – | – | Fold Increase in Lag Time (Aβ1-40 [1]; Table IV, 10 mole %): 1.6 fold; Fold Increase in Lag Time (Aβ1-40 [1]; Table IV, 100 mole %): 3.1 fold; inhibition at 100 mol % (Aβ1-40 [1]; [4]): -23%
CC(C)C[C@H](NC(=O)[C@H](CCCCN)NC(=O)CC[C@@H](C)[C@H]1CC[C@H]2[C@@H]3[C@H](O)C[C@@H]4C[C@H](O)CC[C@]4(C)[C@H]3C[C@H](O)[C@]12C)C(=O)N[C@H](C(=O)N[C@@H](Cc1ccccc1)C(=O)N[C@@H](Cc1ccccc1)C(=O)O)[C@@H](C)O [PPI-369] (Cholyl-KLTFF-OH) | 1.1 | – | – | Fold Increase in Lag Time (Aβ1-40 [1]; Table IV, 100 mole %): ~1 fold; inhibition at 100 mol % (Aβ1-40 [1]; [4]): -16%
CC(C)C[C@H](NC(=O)[C@H](CCCCN)NC(=O)CC[C@@H](C)[C@H]1CC[C@H]2[C@@H]3[C@H](O)C[C@@H]4C[C@H](O)CC[C@]4(C)[C@H]3C[C@H](O)[C@]12C)C(=O)N[C@H](C(=O)N[C@@H](C)C(=O)N[C@@H](Cc1ccccc1)C(=O)O)C(C)C [PPI-370, cholyl-Aβ16-20 Phe19->Ala] (Cholyl-KLVAF-OH) | 2.6 | – | – | Fold Increase in Lag Time (Aβ1-40 [1]; Table IV, 100 mole %): 2.6 fold; inhibition at 100 mol % (Aβ1-40 [1]; [4]): 73%
CC(C)C[C@H](NC(=O)[C@@H](N)CCCCN)C(=O)N[C@H](C(=O)N[C@@H](Cc1ccccc1)C(=O)N[C@@H](Cc1ccccc1)C(=O)O)C(C)C [PPI-377, Aβ16-20] | – | – | – | inhibition at 100 mol % (Aβ1-40 [1]; [4]): 0%
CC(C)C[C@H](NC(=O)[C@@H](N)CCCCN)C(=O)N[C@H](C(=O)N[C@@H](Cc1ccccc1)C(=O)N[C@@H](Cc1ccccc1)C(N)=O)C(C)C [PPI-387] | 1.3 | −9 | 39 | –
CC(C)C[C@H](N)C(=O)N[C@H](C(=O)N[C@@H](Cc1ccccc1)C(=O)N[C@@H](Cc1ccccc1)C(=O)N[C@@H](C)C(N)=O)C(C)C [PPI-405] | 1.3 | 11 | 70 | –
PPI-315: CA-HQKLVFF-nh2 (N-terminal CA cap; C-terminal amide) | – | – | – | % Inucl'n (percent reduction in maximum observed turbidity) (Aβ1-40 [1]; Table V, 33 mol % inhibitor): 5** %
PPI-380: CA-LVFF-oh | – | – | 51 | % Inucl'n (percent reduction in maximum observed turbidity) (Aβ1-40 [1]; Table V, 33 mol % inhibitor): 72** %; ΔLag (ratio of lag time with test compound to lag time of control) (Aβ1-40 [1]; Table V, 33 mole % inhibitor): 1.8
PPI-392: CA-VFFA-oh ({CA}-VFFA-OH; reading uncertain; also: printed as CA-VFFA-oh) | 2.0 | 76 | 10 | –
PPI-393: CA-LVF-oh | 1.3 | 1 | 0 | –
PPI-394: CA-VFF-oh ({CA}-Val-Phe-Phe-OH; reading uncertain; also: printed as CA-VFF-oh) | 1.8 | 55 | 0 | –
PPI-395: CA-FFA-oh ({CA}-Phe-Phe-Ala-OH; reading uncertain; also: printed as CA-FFA-oh) | 1.0 | 51 | 6 | –
PPI-403: h-DDIII(N-Me-Val)DLL(Adp)-HQKLVFF-oh ({H2N-Asp-Asp-Ile-Ile-Ile-NMeV-Asp-Leu-Leu-Adp″}-HQKLVFF-OH) | 1.4 | −75 | – | –
PPI-407: CA-LVFFK-oh | – | – | – | % Inucl'n (percent reduction in maximum observed turbidity) (Aβ1-40 [1]; Table V, 33 mol % inhibitor): 100** %
PPI-418: h-(Aic)-LVFFA-oh | – | – | – | % Inucl'n (percent reduction in maximum observed turbidity) (Aβ1-40 [1]; Table V, 33 mol % inhibitor): 100** %
PPI-429: CA-FFV-oh ({CA}-Phe-Phe-Val-OH; reading uncertain; also: printed as PPI-429: CA-FFV-oh) | 2.2 | −33 | 7 | –
PPI-430: CA-FFVL-oh ({CA}-FFVL-OH; reading uncertain; also: printed as PPI-430: CA-FFVL-oh) | 4.1 | 33 | 75 | –
PPI-438: CA-GFF-oh ({CA}-Gly-Phe-Phe-OH; reading uncertain; also: printed as PPI-438: CA-GFF-oh) | 1.0 | 0 | – | –

More lines, main results first:

ΔLag (ratio of lag time with test compound to lag time of control) (Aβ1-40 [1]; [3]) | % Inucl'n (percent reduction in maximum observed turbidity) (Aβ1-40 [1]; Table V, 100 mole % inhibitor) [%] | % Iext'n (percent reduction of thioflavin-T fluorescence) (Aβ1-40 [2]) [%] | Compound | also measured
1.3 | – | – | CC(C)C[C@H](NC(=O)[C@H](CCCCN)NC(=O)CCCC[C@@H]1SC[C@@H]2NC(=N)N[C@@H]21)C(=O)N[C@H](C(=O)N[C@@H](Cc1ccccc1)C(=O)N[C@@H](Cc1ccccc1)C(=O)O)C(C)C [PPI-374, iminobiotinyl-Aβ16-20] | Fold Increase in Lag Time (Aβ1-40 [1]; Table IV, 100 mole %): 1.3 fold; inhibition at 100 mol % (Aβ1-40 [1]; [4]): 86%
– | 15 | – | CC(C)C[C@H](N)C(=O)N[C@H](C(=O)N[C@@H](Cc1ccccc1)C(=O)N[C@@H](Cc1ccccc1)C(=O)N[C@@H](C)C(=O)O)C(C)C [PPI-386] | –
– | −5 | – | CC(C)C[C@H](NC(=O)OC(C)(C)C)C(=O)N[C@H](C(=O)N[C@@H](Cc1ccccc1)C(=O)N[C@@H](Cc1ccccc1)C(=O)N[C@@H](C)C(=O)O)C(C)C [PPI-435] | –
